According to article PMC12514573, “The bacterial tRNA-modifying enzyme tRNA^Ile lysidine synthetase is genetically conserved but catalytically variable” (The Journal of Biological Chemistry, 2025):

What was measured:
Format in all cases: biochemical
[1] = target: T1, GkTilS (Geobacillus kaustophilus, UniProt Q5L3T3); experiment: 3H-lysine incorporation into tRNA, filter scintillation; settings: labelled compound; cognate tRNA(Ile2) transcript, 2 mM ATP, 10 mM MgCl2, 10 mM KCl, pH 9.0
T1 construct: gene tilS; recombinant, pET-28a, Rosetta II E. coli; strain source only in supplement (codon-usage genome HTA426)
T1 sequence (Q5L3T3 1-464): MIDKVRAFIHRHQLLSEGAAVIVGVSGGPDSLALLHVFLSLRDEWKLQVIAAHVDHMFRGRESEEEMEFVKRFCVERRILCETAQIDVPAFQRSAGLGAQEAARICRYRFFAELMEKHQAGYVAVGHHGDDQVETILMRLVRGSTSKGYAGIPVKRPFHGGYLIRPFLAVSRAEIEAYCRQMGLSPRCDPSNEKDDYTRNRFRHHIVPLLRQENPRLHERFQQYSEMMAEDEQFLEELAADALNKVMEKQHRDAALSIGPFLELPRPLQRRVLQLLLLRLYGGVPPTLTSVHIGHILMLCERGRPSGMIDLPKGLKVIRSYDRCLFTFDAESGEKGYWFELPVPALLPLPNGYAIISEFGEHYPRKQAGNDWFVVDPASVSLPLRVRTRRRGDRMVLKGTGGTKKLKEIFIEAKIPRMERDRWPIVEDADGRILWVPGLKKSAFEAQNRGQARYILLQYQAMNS

[2] = target: T2, BcTilS (Burkholderia cenocepacia, UniProt B4ED70); experiment: as above; settings: labelled compound; cognate tRNA(Ile2) transcript, 2 mM ATP, 10 mM MgCl2, 10 mM KCl, pH 9.0
T2 construct: gene tilS; recombinant, pET-28a, Rosetta II E. coli; strain source only in supplement (codon-usage genome HI2424)
T2 sequence (B4ED70 1-473): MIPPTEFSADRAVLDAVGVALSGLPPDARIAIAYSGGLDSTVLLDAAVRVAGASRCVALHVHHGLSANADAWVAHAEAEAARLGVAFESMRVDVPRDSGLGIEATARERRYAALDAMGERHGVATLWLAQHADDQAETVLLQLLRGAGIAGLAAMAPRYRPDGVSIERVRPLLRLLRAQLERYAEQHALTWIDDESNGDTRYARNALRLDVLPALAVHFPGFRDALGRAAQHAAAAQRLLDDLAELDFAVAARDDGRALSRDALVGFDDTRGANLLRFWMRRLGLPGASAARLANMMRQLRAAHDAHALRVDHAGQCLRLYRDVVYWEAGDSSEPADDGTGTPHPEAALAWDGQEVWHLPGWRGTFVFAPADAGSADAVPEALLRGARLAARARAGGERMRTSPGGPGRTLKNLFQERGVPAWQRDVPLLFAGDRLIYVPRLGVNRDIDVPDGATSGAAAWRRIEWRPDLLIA

[3] = target: T3, HpTilS (Helicobacter pylori, UniProt O25428); experiment: as above; settings: labelled compound; cognate tRNA(Ile2) transcript, 2 mM ATP, 10 mM MgCl2, 10 mM KCl, pH 8.5
T3 construct: gene tilS; type II TilS; recombinant, Rosetta II E. coli; strain source only in supplement (codon-usage genome 26695)
T3 sequence (O25428 1-336): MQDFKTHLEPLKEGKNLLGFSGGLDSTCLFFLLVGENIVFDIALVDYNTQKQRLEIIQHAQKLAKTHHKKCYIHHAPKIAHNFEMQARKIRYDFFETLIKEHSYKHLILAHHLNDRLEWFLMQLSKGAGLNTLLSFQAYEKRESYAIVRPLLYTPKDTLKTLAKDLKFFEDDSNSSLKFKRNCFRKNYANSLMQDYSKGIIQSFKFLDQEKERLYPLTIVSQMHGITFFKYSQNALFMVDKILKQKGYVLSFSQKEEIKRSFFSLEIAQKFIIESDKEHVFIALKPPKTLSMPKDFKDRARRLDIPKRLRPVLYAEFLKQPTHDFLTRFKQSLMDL

[4] = target: T4, BfTilS (Bacteroides fragilis, UniProt Q5LFM6); experiment: as above; settings: labelled compound; cognate tRNA(Ile2) transcript, 2 mM ATP, 10 mM MgCl2, 10 mM KCl, pH 8.5
T4 construct: gene tilS; recombinant, pET-28a, Rosetta II E. coli; strain source only in supplement (codon-usage genome NCTC9343)
T4 sequence (Q5LFM6 1-435): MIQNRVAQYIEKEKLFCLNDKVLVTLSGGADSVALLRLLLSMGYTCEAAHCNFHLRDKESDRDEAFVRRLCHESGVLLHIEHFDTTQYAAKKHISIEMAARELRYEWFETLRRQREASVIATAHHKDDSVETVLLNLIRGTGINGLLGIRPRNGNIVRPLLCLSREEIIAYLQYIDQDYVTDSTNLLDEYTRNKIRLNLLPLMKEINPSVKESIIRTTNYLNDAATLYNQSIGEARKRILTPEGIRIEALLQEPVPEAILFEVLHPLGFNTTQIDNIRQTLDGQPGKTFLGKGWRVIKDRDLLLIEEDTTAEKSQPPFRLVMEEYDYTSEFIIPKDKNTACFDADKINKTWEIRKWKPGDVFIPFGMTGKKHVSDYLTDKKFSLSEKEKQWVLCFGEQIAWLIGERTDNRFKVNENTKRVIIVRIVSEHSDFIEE

[5] = target: T5, PaTilS (Pseudomonas aeruginosa, UniProt Q9HXZ3); experiment: as above; settings: labelled compound; cognate tRNA(Ile2) transcript, 2 mM ATP, 10 mM MgCl2, 10 mM KCl, pH 9.0
T5 construct: gene tilS; recombinant, pET-28a, Rosetta II E. coli; strain source only in supplement (codon-usage genome PAO1)
T5 sequence (Q9HXZ3 1-442): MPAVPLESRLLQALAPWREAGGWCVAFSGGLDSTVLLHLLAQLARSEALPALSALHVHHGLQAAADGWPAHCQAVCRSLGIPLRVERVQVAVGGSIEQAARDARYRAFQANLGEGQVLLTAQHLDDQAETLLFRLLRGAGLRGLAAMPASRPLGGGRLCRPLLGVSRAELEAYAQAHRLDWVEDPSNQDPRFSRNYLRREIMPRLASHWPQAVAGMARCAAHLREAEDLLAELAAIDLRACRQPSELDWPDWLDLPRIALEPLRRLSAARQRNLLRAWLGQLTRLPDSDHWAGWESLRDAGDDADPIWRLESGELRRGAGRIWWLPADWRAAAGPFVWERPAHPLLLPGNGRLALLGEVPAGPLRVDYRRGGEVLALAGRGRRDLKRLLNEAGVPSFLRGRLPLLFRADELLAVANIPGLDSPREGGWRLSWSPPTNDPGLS

[6] = target: T6, EcTilS (Escherichia coli, UniProt P52097); experiment: as above; settings: labelled compound; cognate tRNA(Ile2) transcript, 2 mM ATP, 10 mM MgCl2, 10 mM KCl, pH 9.0
T6 construct: gene tilS; recombinant, pET-28a, Rosetta II E. coli; strain source only in supplement (codon-usage genome W3110)
T6 sequence (P52097 1-432): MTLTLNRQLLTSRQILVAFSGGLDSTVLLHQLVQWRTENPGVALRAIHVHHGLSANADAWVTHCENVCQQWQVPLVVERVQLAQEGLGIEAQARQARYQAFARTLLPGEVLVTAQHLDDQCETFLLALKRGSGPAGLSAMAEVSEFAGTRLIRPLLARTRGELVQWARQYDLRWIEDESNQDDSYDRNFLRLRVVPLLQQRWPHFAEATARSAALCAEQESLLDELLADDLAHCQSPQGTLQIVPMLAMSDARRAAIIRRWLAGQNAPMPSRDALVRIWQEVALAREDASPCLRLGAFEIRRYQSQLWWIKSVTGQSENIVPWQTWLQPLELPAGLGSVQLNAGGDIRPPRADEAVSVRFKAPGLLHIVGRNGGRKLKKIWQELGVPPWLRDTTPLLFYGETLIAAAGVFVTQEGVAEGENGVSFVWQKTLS

[7] = target: T7, MsTilS (Mycolicibacterium smegmatis, UniProt A0R594); experiment: as above; settings: labelled compound; cognate tRNA(Ile2) transcript, 2 mM ATP, 10 mM MgCl2, 10 mM KCl, pH 8.5
T7 construct: gene tilS; type II TilS, lacks CTD2 naturally; recombinant, Rosetta II E. coli; strain source only in supplement (codon-usage genome MG(2)155)
T7 sequence (A0R594 1-322): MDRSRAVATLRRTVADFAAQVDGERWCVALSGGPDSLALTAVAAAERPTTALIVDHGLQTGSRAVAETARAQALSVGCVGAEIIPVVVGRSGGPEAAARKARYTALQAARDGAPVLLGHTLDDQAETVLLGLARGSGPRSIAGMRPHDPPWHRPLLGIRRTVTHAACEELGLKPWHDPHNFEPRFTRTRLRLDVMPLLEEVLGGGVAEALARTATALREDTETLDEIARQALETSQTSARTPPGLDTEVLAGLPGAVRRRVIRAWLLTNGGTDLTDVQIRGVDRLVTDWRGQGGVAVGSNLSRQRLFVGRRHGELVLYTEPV

[8] = target: T8, GkMetRS (Geobacillus kaustophilus, UniProt Q5L3W2); experiment: tRNA methionylation (aminoacylation); settings: cognate tRNA(Met) transcript; assay details not given
T8 construct: gene metG; recombinant, cloned metS gene; details not in main text
T8 sequence (Q5L3W2 1-650): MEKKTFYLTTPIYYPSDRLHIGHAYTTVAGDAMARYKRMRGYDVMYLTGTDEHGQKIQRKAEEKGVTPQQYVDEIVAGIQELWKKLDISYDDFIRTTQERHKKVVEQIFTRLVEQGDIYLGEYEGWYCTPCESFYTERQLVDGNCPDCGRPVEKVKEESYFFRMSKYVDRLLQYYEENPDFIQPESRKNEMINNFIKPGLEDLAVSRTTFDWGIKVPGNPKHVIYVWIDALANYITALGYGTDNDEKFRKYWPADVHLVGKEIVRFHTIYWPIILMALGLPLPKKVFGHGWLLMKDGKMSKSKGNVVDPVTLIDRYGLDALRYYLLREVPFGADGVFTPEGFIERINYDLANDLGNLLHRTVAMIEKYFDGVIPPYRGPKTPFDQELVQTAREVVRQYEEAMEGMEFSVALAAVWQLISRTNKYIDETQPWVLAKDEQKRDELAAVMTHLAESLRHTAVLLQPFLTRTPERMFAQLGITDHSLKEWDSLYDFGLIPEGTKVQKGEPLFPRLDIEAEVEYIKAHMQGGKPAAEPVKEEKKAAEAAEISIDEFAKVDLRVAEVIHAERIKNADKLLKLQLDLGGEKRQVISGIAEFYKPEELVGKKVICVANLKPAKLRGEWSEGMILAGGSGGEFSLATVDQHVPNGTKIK

[9] = target: T9, BcMetRS (Burkholderia cenocepacia, UniProt A0K9L0); experiment: tRNA methionylation (aminoacylation); settings: cognate tRNA(Met) transcript; assay details not given
T9 construct: gene metG; recombinant, cloned metS gene; details not in main text
T9 sequence (A0K9L0 1-718): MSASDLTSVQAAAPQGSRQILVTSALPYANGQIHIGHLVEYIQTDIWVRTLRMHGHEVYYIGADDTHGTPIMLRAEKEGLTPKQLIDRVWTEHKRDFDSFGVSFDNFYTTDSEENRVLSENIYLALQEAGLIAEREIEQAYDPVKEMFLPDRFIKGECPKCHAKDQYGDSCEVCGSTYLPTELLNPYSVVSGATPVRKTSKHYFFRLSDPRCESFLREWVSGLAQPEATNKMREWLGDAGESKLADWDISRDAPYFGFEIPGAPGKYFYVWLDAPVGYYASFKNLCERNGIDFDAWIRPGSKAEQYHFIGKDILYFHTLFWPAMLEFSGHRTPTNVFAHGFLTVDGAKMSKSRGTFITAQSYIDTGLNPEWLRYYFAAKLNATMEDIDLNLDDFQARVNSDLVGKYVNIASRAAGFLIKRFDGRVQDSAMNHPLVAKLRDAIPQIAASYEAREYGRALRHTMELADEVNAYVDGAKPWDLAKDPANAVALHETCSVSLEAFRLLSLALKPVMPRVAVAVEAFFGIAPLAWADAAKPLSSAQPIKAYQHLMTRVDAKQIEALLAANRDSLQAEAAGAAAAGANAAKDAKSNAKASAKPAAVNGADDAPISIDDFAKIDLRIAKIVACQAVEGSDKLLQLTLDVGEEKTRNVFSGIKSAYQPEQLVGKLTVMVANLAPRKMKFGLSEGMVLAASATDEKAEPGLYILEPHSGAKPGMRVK

[10] = target: T10, PaMetRS (Pseudomonas aeruginosa, UniProt Q9HYC7); experiment: tRNA methionylation (aminoacylation); settings: cognate tRNA(Met) transcript; assay details not given
T10 construct: gene metG; recombinant, cloned metS gene; details not in main text
T10 sequence (Q9HYC7 1-677): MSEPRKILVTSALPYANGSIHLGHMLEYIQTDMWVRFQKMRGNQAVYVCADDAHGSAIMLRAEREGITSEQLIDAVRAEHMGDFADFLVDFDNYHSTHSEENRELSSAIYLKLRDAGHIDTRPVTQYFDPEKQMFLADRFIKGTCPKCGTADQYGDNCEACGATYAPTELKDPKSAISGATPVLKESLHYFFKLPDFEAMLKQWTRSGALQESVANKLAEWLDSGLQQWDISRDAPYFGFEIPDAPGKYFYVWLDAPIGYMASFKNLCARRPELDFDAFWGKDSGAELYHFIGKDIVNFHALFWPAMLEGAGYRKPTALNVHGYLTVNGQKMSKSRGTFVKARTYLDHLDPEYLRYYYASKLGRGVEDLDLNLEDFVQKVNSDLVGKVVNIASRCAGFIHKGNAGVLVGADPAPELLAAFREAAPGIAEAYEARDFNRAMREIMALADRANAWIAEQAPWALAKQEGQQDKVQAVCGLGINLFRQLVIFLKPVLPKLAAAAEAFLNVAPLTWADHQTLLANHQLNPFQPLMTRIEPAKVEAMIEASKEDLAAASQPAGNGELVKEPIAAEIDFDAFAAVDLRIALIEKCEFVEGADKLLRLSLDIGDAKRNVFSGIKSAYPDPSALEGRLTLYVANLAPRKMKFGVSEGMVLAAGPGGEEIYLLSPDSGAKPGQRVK

Compound	3H-lysine incorporation into tRNA, filter scintillation [1]	3H-lysine incorporation into tRNA, filter scintillation [2]	3H-lysine incorporation into tRNA, filter scintillation [3]	3H-lysine incorporation into tRNA, filter scintillation [4]	3H-lysine incorporation into tRNA, filter scintillation [5]	3H-lysine incorporation into tRNA, filter scintillation [6]	3H-lysine incorporation into tRNA, filter scintillation [7]	tRNA methionylation (aminoacylation) [8]	tRNA methionylation (aminoacylation) [9]	tRNA methionylation (aminoacylation) [10]
NCCCC[C@H](N)C(=O)O [L-lysine]	Filters were counted by liquid scintillation to quantify lysine incorporation into transcript tRNA.	Filters were counted by liquid scintillation to quantify lysine incorporation into transcript tRNA.	Filters were counted by liquid scintillation to quantify lysine incorporation into transcript tRNA.	Filters were counted by liquid scintillation to quantify lysine incorporation into transcript tRNA.	Filters were counted by liquid scintillation to quantify lysine incorporation into transcript tRNA.	Filters were counted by liquid scintillation to quantify lysine incorporation into transcript tRNA.	Filters were counted by liquid scintillation to quantify lysine incorporation into transcript tRNA.			
CSCC[C@H](N)C(=O)O [methionine]								evaluated the methionylation activity toward cognate tRNA^Met and near-cognate tRNA^Ile2 substrates	evaluated the methionylation activity toward cognate tRNA^Met and near-cognate tRNA^Ile2 substrates	evaluated the methionylation activity toward cognate tRNA^Met and near-cognate tRNA^Ile2 substrates
